Experimental findings from PubChem BioAssay (NCI) are described below.

Test systems include HCT-116 colon; A549 NSCLC; SK-OV-3 ovarian; SF-268 CNS; LOX IMVI melanoma; NCI-H226 lung; HT29 colon; OVCAR-5 ovarian; IGROV1 ovarian; SN12C renal.
Assay in all cases: NCI-60 cell line screen, 48 h

The structures appear in SMILES notation. Values joined by “and” are separate entries in the source; they are usually repeats but may differ in a detail not shown here. Equal entries are not always repeated.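 Cells were grown in 96-well plates and exposed to each compound for 48 hours at five concentrations; endpoints were interpolated linearly between bracketing concentrations, or set to the highest concentration if not reached. GI50 marks 50% less growth. At the TGI there is no net growth.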

Turning to `COc1ccc(C2C(C)C(=O)C(C)C(c3ccc(OC)cc3)N2N=O)cc1` (stereo unspecified), the TGI was 455 µM in the assay with HCT-116 colon; 750 µM and > 1000 µM with A549 NSCLC; > 82.5 µM and 626 µM and 980 µM in the assay on SK-OV-3 ovarian; more than 1000 µM in the assay with SF-268 CNS; more than 1000 µM in the assay on LOX IMVI melanoma; > 75 µM and 457 µM in the assay on NCI-H226 lung. Also, the TGI was more than 1000 µM with HT29 colon; more than 977 µM in the assay with OVCAR-5 ovarian; 391 µM and 656 µM in the assay on IGROV1 ovarian; more than 1000 µM in the assay with SN12C renal. Also, the GI50 with A549 NSCLC was 409 µM; with SK-OV-3 ovarian it was > 47.5 µM and 220 µM; in the assay with SF-268 CNS it was 78.1 µM; with LOX IMVI melanoma, more than 750 µM; in the assay with NCI-H226 lung it was more than 88.4 µM; with IGROV1 ovarian it was > 90.8 µM and 138 µM. Moreover, the GI50 in the assay with SN12C renal is more than 750 µM.
As to `C[C@@H](Oc1ccc(C(=O)NS(=O)(=O)C(C)(C)C)cc1C(F)(F)F)c1ccc(Oc2ccccc2)cn1`, the GI50 was 2.48 µM in the assay on HCT-116 colon; 5.31 µM in the assay with A549 NSCLC; 3.73 µM in the assay on SK-OV-3 ovarian; 3.54 µM with SF-268 CNS; 2.8 µM in the assay with LOX IMVI melanoma; 2.76 µM with NCI-H226 lung. Moreover, the GI50 in the assay on HT29 colon was 3.1 µM; in the assay with OVCAR-5 ovarian, 3.46 µM; in the assay on IGROV1 ovarian, 2.64 µM; in the assay with SN12C renal it was 4.58 µM. The TGI with HCT-116 colon was determined as 11.2 µM; in the assay with A549 NSCLC, 20.5 µM; with SK-OV-3 ovarian it was 15.2 µM; with SF-268 CNS, 17.8 µM; with LOX IMVI melanoma, 10.8 µM; with NCI-H226 lung it was 8.5 µM. Also, the TGI with HT29 colon was 8.38 µM; in the assay with OVCAR-5 ovarian it was 14 µM; in the assay on IGROV1 ovarian, 13.7 µM; in the assay on SN12C renal, 18.6 µM.
Regarding `Cc1ccc2c(c1)S(=O)(=O)c1ccc3ccccc3c1N2`, the TGI with HCT-116 colon, in the assay on A549 NSCLC, in the assay on SK-OV-3 ovarian, in the assay on SF-268 CNS, in the assay on LOX IMVI melanoma and with NCI-H226 lung was more than 100 µM throughout. The TGI in the assay on HT29 colon, with OVCAR-5 ovarian, with IGROV1 ovarian and in the assay on SN12C renal was more than 100 µM each time.
As to `CCOc1cccc(-c2nc(N)nc(Nc3ccccc3SSc3ccccc3Nc3nc(N)nc(-c4cccc(OCC)c4)n3)n2)c1`, the GI50 in the assay on HCT-116 colon was 3.95 µM; in the assay with A549 NSCLC, 2.02 µM; in the assay with SK-OV-3 ovarian, 4.87 µM; with SF-268 CNS it was 3.84 µM; in the assay on LOX IMVI melanoma, 1.51 µM; in the assay with NCI-H226 lung it was 4.5 µM. Also, the GI50 in the assay with HT29 colon was 55.8 µM; with OVCAR-5 ovarian, 3.42 µM; in the assay with IGROV1 ovarian, 3.65 µM; in the assay on SN12C renal, 2.32 µM. The TGI is more than 100 µM in the assay with HCT-116 colon; 4.78 µM in the assay with A549 NSCLC; more than 100 µM in the assay with SK-OV-3 ovarian; more than 100 µM in the assay on SF-268 CNS; 3.22 µM in the assay with LOX IMVI melanoma; more than 100 µM in the assay on NCI-H226 lung. Besides, the TGI is more than 100 µM with HT29 colon, 44.1 µM in the assay with OVCAR-5 ovarian, 97 µM in the assay with IGROV1 ovarian and 14.8 µM with SN12C renal.
`Cn1c(/C=C/[N+](=O)[O-])cc2ccccc21`: the GI50 in the assay on HCT-116 colon is 1.04 µM; in the assay on A549 NSCLC it was 2.68 µM; in the assay with SK-OV-3 ovarian, 13.2 µM; in the assay with SF-268 CNS, 11.7 µM; in the assay with LOX IMVI melanoma it was 1.67 µM; with NCI-H226 lung, 4.23 µM. Besides, the GI50 in the assay with HT29 colon was 1.68 µM; with OVCAR-5 ovarian, 21.2 µM; with IGROV1 ovarian, 2.05 µM; with SN12C renal, 13.1 µM. The TGI in the assay with HCT-116 colon turned out to be 2.45 µM; in the assay on A549 NSCLC, 7.83 µM; with SK-OV-3 ovarian, 26.3 µM; in the assay on SF-268 CNS, 27.4 µM; in the assay on LOX IMVI melanoma, 3.44 µM; in the assay on NCI-H226 lung it was 21 µM. Moreover, the TGI in the assay with HT29 colon is 4.02 µM; in the assay with OVCAR-5 ovarian it was 56.6 µM; in the assay on IGROV1 ovarian, 5.44 µM; with SN12C renal, more than 100 µM.
Regarding `COc1ccc(-n2ccnc2-c2cc(OC)c(OC)c(OC)c2)cc1`, the GI50 is 3.9 µM with HCT-116 colon; 6.57 µM with A549 NSCLC; 5.76 µM in the assay with SK-OV-3 ovarian; 8.69 µM in the assay on SF-268 CNS; 7.99 µM in the assay on LOX IMVI melanoma; 24 µM in the assay on NCI-H226 lung. Besides, the GI50 is 1.86 µM in the assay on HT29 colon, 10.1 µM in the assay on OVCAR-5 ovarian, 2.42 µM in the assay on IGROV1 ovarian and 6.24 µM with SN12C renal. Moreover, the TGI in the assay on HCT-116 colon, in the assay with A549 NSCLC, in the assay with SK-OV-3 ovarian, in the assay with SF-268 CNS, with LOX IMVI melanoma and in the assay with NCI-H226 lung was more than 100 µM in each case. Moreover, the TGI in the assay with OVCAR-5 ovarian, in the assay with IGROV1 ovarian and in the assay on SN12C renal was more than 100 µM each time.
Regarding `COc1ccccc1NC(=O)c1nc2ccc([N+](=O)[O-])cc2nc1C`, the TGI in the assay with HCT-116 colon, in the assay on A549 NSCLC, in the assay on SK-OV-3 ovarian, in the assay on SF-268 CNS, with LOX IMVI melanoma and with NCI-H226 lung was more than 100 µM each time. The TGI in the assay on HT29 colon, in the assay with OVCAR-5 ovarian, in the assay with IGROV1 ovarian and in the assay on SN12C renal was more than 100 µM throughout.
Regarding `Cn1c(=O)c(Oc2ccc(F)cc2F)cc2cnc(NC3CCS(=O)(=O)CC3)nc21`, the GI50 with HCT-116 colon is more than 25 µM; in the assay with A549 NSCLC, more than 25 µM; in the assay with SK-OV-3 ovarian, more than 20 µM; with SF-268 CNS, more than 18.9 µM; in the assay with LOX IMVI melanoma it was more than 25 µM; with NCI-H226 lung, more than 25 µM. Moreover, the GI50 in the assay with HT29 colon is more than 25 µM; with OVCAR-5 ovarian it was more than 25 µM; in the assay with IGROV1 ovarian it was more than 21.2 µM; with SN12C renal, more than 25 µM. The TGI in the assay with HCT-116 colon, with A549 NSCLC, in the assay on SK-OV-3 ovarian, with SF-268 CNS, in the assay with LOX IMVI melanoma and with NCI-H226 lung was more than 25 µM in each case. For the same compound, the TGI with HT29 colon, in the assay on OVCAR-5 ovarian, with IGROV1 ovarian and in the assay on SN12C renal was more than 25 µM in each case.
With `COc1ccc(C(=O)C(c2ccc(OCc3ccccc3)cc2)c2ccc(OCc3ccccc3)cc2)cc1`, the TGI in the assay on HCT-116 colon, in the assay on A549 NSCLC, with SK-OV-3 ovarian, with SF-268 CNS, in the assay with LOX IMVI melanoma and with NCI-H226 lung was more than 100 µM throughout. Moreover, the TGI in the assay with HT29 colon, in the assay on OVCAR-5 ovarian, in the assay on IGROV1 ovarian and with SN12C renal was more than 100 µM throughout.
